One test concerns CHO (CFTR−) cells. Kind of test: Efflux of radioactive iodide in control CHO (CFTR−) cells not transfected with CFTR. It is filed as cell-based, Chinese hamster.
The next test deals with intracellular cAMP. Kind of test: Level of intracellular cAMP in recombinant CHO cell. In kind it is cell-based, Chinese hamster. The following applies: after 5 min. As to the method:
(§1) The study relates to molecules of the benzoquinolizinium family described above. They are tested for their ability to activate the CFTR channel. Screening of molecules as openers of the CFTR channel was carried out by measuring their effect on the efflux of radioactive iodide and on the transmembrane chloride currents (Becq et al., 1993a).
FIG. 12: Histograms representing the levels of cAMP (measured in nmol per mg of protein) in the CHO cells which have been transfected with the CFTR gene and have not been activated (basal), or have been activated by forskoline (forskoline), or have been activated by rolipram (rolipram), or have been activated by MPB-07 (MPB-07).

For test [1], the target named is T1, CFTR channel (Homo sapiens, UniProt P13569). Kind of test: Efflux of radioactive iodide in recombinant CHO (CFTR+) cells. It is filed as cell-based. Further details: expressed in transfected cells; host or cells: CHO-K1 cells, vector pNUT. The conditions noted are these: for activation at 500 µM: read-out: % activation relative to control; for effect on the efflux of iodide / CFTR channel activation: 500 μM. As to the method: (§2) Several types of cells are used for this study: the intestinal lines T84, Caco-2 and HT 29. Chinese hamster ovary (CHO-K1) cells were transfected with the aid of the vector pNUT (Tabcharani et al., 1991) with or without (control cells) incorporation of normal or mutated CFTR cDNA (Chang et al., 1993). The cells are kept in this specific medium and then inoculated at a low density on to glass slides and cultured at 37° C. (5% CO2), before the patch clamping experiments. The survival medium of the cells is composed of αMEM with foetal calf serum (7%) and antibiotics: 50 IU/ml penicillin and 50 μg/ml streptomycin and methotrexate (100 μM to 200 μM).
T1 sequence (P13569 whole entry): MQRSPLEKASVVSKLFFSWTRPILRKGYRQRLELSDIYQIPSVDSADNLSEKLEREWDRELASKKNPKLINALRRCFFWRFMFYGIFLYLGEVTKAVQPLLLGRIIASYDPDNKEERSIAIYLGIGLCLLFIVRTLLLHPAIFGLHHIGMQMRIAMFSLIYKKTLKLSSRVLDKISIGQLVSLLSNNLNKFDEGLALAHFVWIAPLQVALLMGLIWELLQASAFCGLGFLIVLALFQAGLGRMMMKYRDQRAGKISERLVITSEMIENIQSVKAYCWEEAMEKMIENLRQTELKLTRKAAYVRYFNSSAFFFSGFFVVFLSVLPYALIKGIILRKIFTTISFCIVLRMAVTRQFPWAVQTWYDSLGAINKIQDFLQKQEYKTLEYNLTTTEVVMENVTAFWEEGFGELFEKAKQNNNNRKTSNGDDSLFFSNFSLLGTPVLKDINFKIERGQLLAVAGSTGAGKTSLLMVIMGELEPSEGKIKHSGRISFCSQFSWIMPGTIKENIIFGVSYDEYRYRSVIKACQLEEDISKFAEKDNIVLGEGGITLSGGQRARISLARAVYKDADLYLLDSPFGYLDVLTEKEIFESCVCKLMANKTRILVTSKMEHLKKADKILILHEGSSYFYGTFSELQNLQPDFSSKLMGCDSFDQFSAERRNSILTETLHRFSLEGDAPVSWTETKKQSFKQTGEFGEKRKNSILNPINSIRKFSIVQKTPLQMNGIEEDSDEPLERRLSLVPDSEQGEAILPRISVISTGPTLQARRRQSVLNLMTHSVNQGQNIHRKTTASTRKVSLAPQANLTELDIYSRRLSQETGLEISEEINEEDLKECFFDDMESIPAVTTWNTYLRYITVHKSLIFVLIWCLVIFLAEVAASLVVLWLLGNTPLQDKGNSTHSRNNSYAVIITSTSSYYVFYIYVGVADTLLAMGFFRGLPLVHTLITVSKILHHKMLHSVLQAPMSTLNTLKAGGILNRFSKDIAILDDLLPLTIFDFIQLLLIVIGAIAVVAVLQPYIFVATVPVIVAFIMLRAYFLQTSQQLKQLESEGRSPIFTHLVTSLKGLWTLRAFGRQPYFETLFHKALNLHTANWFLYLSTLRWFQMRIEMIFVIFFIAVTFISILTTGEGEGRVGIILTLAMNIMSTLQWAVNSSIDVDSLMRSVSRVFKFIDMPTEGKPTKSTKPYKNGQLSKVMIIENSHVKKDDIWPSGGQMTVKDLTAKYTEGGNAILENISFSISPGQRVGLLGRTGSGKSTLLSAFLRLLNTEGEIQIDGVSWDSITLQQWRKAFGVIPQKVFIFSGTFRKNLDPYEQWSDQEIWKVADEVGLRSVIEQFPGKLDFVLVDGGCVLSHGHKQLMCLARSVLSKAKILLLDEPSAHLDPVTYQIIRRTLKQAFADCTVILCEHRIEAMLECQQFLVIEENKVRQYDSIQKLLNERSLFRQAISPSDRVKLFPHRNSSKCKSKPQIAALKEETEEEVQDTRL
(§3) This technique enables the kinetics of the exit of iodide to be monitored. The cells are cultured in 12-well plates with a dilution to 1/10 after passage. On day 3, the drugs to be tested are dissolved in medium B (37° C.) according to the required concentration. The wells are washed twice with 1 ml of medium B NaOH, 0.1% glucose, which is then replaced by 1 ml of charging solution for 30 min.
(§4) The operation is repeated over 10 min and the cells are then detached with 1 ml of NaOH 0.1N SDS 0.1%. The contents of each well are collected in a haemolysis tube after agitation for 25 min, and the tubes are counted for 2 min in a gamma counter.
as §1
2) CHO cell: efflux of radioactive iodide in
CHO cells transfected with the CFTR chain (labelled CHO-CFTR (+) on FIG. 2B) in the presence or absence of the abovementioned activators.

Test [2] concerns the target T1, CFTR channel. Kind of test: Patch clamping, CFTR channel activation. It is filed as cell-based. Further details: expressed in transfected cells; host or cells: CHO-K1 cells, vector pNUT. The conditions noted are these: rolipram. As to the method:
The patch clamping experiments are carried out on confluent cells. A fragment of the glass slide (cell support) is placed in an experimental chamber (volume 600 μl or 1 ml) on the platen of an inverted microscope fitted with phase contrast illumination (Olympus IMT2). The cell-attached and inside-out configurations are used (Hamill et al., 1981). The experiments are carried out at room temperature (20-22° C.). The currents are amplified with a LIST EPC 7 amplifier (Darmstadt, Germany) (filter of 3 kHz) with a low-pass filter of 2-5 kHz (6-pole Bessel filter) and recorded with a DAT (digital audio tape) after digitalization (16 bits) at 44 kHz. The data are then transferred to an Olivetti M28PC computer. The pipettes are made from glass tubes of 1 mm diameter (Clarke Electromedical Instrument) in two or three stages with a horizontal drawer (Flaming/Brown type, model P-87. Sutter. Inst. Co. USA). The pipettes filled with a solution of 150 mM NaCI have a resistance of between 4 and 12 MΩ. The potentials are expressed as the difference between the potential of the patch electrode and that of the bath. […] The diffusion potentials are evaluated from the potential of the electrode corresponding to a zero current (when the channels are closed). […] To determine the current-voltage ratio, the ionic current amplitudes are measured form amplitude histograms. […]
(The patch-clamp technique gives a direct electrical read-out from membranes.)

In test [3] the target is T1, CFTR channel. Kind of test: Efflux of radioactive iodide in Xenopus ovocyte injected with cRNA-CFTR. In kind it is cell-based. The following applies: Xenopus ovocyte expressing CFTR, 500 μM.
The target of test [4] is T1, CFTR channel. The experiment in a line: Efflux of radioactive iodide in HT29 cells. Also noted: the human colon cell of the line HT29 which expresses the protein CFTR constitutively; endogenous in cells; host or cells: HT29 human colon cells. It is filed as cell-based. The following applies: 500 μM. As to the method: as §2, §3, §4
[5] abbreviates: efflux of iodide, recombinant CHO (CFTR+) cell, MPB and phenanthrene 500 μM.

Where two headings read alike, the source gives them in different places.

Experimental findings from US6630482B1, “CFTR channel activator compounds and pharmaceutical compositions containing same” (Centre National de la Recherche Scientifique, priority 1996, dated 2003) are described below.

Text for CHO (CFTR−) cells: CHO cells which have not been transfected with the protein CFTR (labelled CHO-CFTR (−) on FIG. 2 B) in the presence or absence of the abovementioned activators:

Regarding `C=C[C@@]1(C)CC(=O)[C@]2(O)[C@@]3(C)[C@@H](O)CCC(C)(C)[C@@H]3[C@H](O)[C@H](OC(C)=O)[C@@]2(C)O1` [forskoline], the “effect on the basal level of the efflux of iodide” value (shortened to “effect on the basal level”) in the test with CHO (CFTR−) cells (5 μM) is on record as “do not significantly modify the basal level of the efflux of iodide”. In the test on intracellular cAMP (5 μM), the “effect on cAMP, multiplication factor” value is recorded as “about 4”. Also, the “% activation relative to control” value at CFTR channel [1] (efflux of iodide, recombinant CHO (CFTR+) cell, forskoline 5 μM) was 109%.
For the compound `Nc1cc2ccccc2c2ccccc12` [MPB-24], the activation at 500 µM on CFTR channel [1] turned out to be 18%.
Take `Nc1cc2cccc[n+]2c2cccc(Cl)c12` [MPB-04, 6-Amino, 7-Chlorobenzo[c]quinolizinium Chloride]: the activation at 500 µM on CFTR channel [1] (setting [5]) stood at 11%.
On to `Oc1cc2ccccc2c2ccccc12` [MPB-25], for which the activation at 500 µM on CFTR channel [1] was determined as 25%.
With `c1ccc2c(c1)ccc1ccccc12` [phenanthrene, reference compound], the “effect on the efflux of iodide / CFTR channel activation” value at CFTR channel [1] (CHO (CFTR+) cells) is listed as “does not activate the CFTR channel”. The activation at 500 µM at CFTR channel [1] (setting [5]) was below 5%.
As for “6-Hydroxbenzo[c]quinolizinium Bromide [MPB-06]”, the “% activation relative to control” value on CFTR channel [1] (setting [5]) stood at 53%.
Turning to `COc1ccc(C2CNC(=O)C2)cc1OC1CCCC1` (centres unmarked) [rolipram], in the test with intracellular cAMP (10 μM), the “level of cell cAMP” value was “The same level of cAMP is reached in the presence of the compounds MPB-07 and rolipram”. Also, at CFTR channel [1] (rolipram), the “effect as a CFTR activator measured by the flow of iodide” value is reported as “has no effect as a CFTR activator”. Further, on CFTR channel [2], the “effect as a CFTR activator measured by patch clamping” value is “has no effect as a CFTR activator”.
`Nc1cc2cccc[n+]2c2cc(Cl)ccc12` [MPB-03, 6-Amino, 9-Chlorobenzo[c]quinolizinium Chloride]: the activation at 500 µM on CFTR channel [1] (setting [5]) came out at 18%.
Same read-out and setting: the same measure for `Oc1cc2cccc[n+]2c2cc(Cl)ccc12` [MPB-08, 6-Hydroxy, 9-Chlorobenzo[c]quinolizinium Chloride]: 22%.
Consider `Nc1cc2cccc[n+]2c2ccccc12` [MPB-26, 6-Aminobenzo[c]quinolizium], for which the “% activation relative to control” value at CFTR channel [1] (setting [5]) is recorded as 30%.
For `Nc1ncnc2c1nc(Sc1ccc(Cl)cc1)n2[C@@H]1O[C@@H]2COP(=O)(O)O[C@H]2[C@H]1O` [c-cpt-AMP, cyclic 8-(4-chlorophenylthio)-adenosine 3′,5′-monophosphate], in the test with CHO (CFTR−) cells (500 μM), the “effect on the basal level” value was “has no effect”.
Take `Oc1cc2cccc[n+]2c2c(Cl)cccc12.[Cl-]` [MPB-07, 6-Hydroxy, 10-Chlorobenzo[c]quinolizinium Chloride]: in the test with CHO (CFTR−) cells (500 μM), the “effect on the basal level” value was “do not significantly modify the basal level of the efflux of iodide”. In addition, the “effect on the efflux of iodide” value is “stimulates the efflux of iodide” on CFTR channel [3]; “triggers an efflux of iodide, with a similar rate and amplitude, which is increased with respect to the basal level” at CFTR channel [4]. Further, the “level of cell cAMP” value in the test with intracellular cAMP (500 μM) was “The same level of cAMP is reached in the presence of the compounds MPB-07 and rolipram”. For the same compound, the “effect on the efflux of iodide / CFTR channel activation” value on CFTR channel [1] (CHO (CFTR+) cells) was “comparable in intensity and rate to that induced by forskoline (5 μM)”. Besides, the activation at 500 µM on CFTR channel [1] (setting [5]) amounted to 110%.
In the case of `Oc1cc2cccc[n+]2c2cccc(Cl)c12` [MPB-27, 6-Hydroxy, 7-Chlorobenzo[c]quinolizinium Chloride], the activation at 500 µM on CFTR channel [1] (setting [5]) worked out at 95%.
As to `CNc1ccc2oc(C[C@H]3O[C@@]4(CC[C@H]3C)O[C@H]([C@H](C)C(=O)c3ccc[nH]3)[C@H](C)C[C@H]4C)nc2c1C(=O)O` [Compound A23187, reference compound], in the test with CHO (CFTR−) cells (10 μM), the “effect on the basal level” value is recorded as “do not significantly modify the basal level of the efflux of iodide”. In addition, the “effect on the efflux of iodide” value at CFTR channel [1] (CHO (CFTR+) cells, 10 μM) is reported as “has no effect”.
With `Oc1cc2cccc[n+]2c2ccccc12` [MPB-05, 6-Hydroxybenzo[c]quinolizinium Chloride], the activation at 500 µM at CFTR channel [1] (setting [5]) was found to be 20%.
